Results on 22 compounds are retold here after patent US20060276464A1, “Diarylsulfone sulfonamides and use thereof” (Wyeth, priority 2005, published 2006).

Structures are written as SMILES. Read-outs that look alike come from different tables or passages of the source.

The target of the assay is T1, SFRP-1 (Homo sapiens, UniProt Q8N474).
T1 sequence (Q8N474 32-314): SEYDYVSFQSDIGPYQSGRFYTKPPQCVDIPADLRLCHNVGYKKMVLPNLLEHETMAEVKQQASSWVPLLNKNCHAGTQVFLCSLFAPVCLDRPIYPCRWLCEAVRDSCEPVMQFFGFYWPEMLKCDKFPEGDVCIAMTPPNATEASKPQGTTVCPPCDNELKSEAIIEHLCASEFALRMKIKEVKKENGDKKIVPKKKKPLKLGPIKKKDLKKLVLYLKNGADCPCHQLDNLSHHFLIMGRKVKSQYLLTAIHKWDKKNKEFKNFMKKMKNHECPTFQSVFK
The assay is described as follows: Cell-based assay for in vitro measurement of SFRP-1/SARP2 antagonist activity (U2OS cells co-transfected with 16x TCF-tk-Luciferase reporter, Wnt and hSFRP-1).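 Also: U2OS cells co-transfected with a TCF-tk luciferase reporter, a Wnt vector, hSFRP-1 or empty vector and CMV-βgal, luciferase luminescence read in cell lysates alongside βgal activity.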 The note with it: U2OS, single dose, luciferase reporter.

[1] abbreviates: read-out: Fold Induction with SFRP-1, Conc 15 μM, fold induction over SFRP-1 control, cells with SFRP-1.
Where [2] appears, read: read-out: Fold Induction without SFRP-1, Conc 15 μM, cells without SFRP-1 (specificity control).

Take `CC(C)c1ccc(S(=O)(=O)c2ccc(F)cc2)cc1S(=O)(=O)NCCN1CCCCC1` [Example 527, 5-[(4-fluorophenyl)sulfonyl]-2-isopropyl-N-(2-piperidin-1-ylethyl)benzenesulfonamide]: the fold induction at 15 µM reads like this: under setting [1], 2.3; under setting [2], 1.2.

With `CC(C)c1ccc(S(=O)(=O)c2ccc(F)cc2)cc1S(=O)(=O)NC1CCN(C(=S)Nc2ccc3c(c2)C(=O)OC32c3ccc(O)cc3Oc3cc(O)ccc32)CC1` [Example 538, N-(3′,6′-dihydroxy-3-oxo-3H-spiro[2-benzofuran-1,9′-xanthen]-5-yl)-4-[({5-[(4-fluorophenyl)sulfonyl]-2-isopropylphenyl}sulfonyl)amino]piperidine-1-carbothioamide], the fold induction at 15 µM was 2.4 under setting [1] and 1.1 under setting [2].

With `CCCc1ccc(S(=O)(=O)c2ccccc2)cc1S(N)(=O)=O` [Example 557, 5-(Phenylsulfonyl)-2-propylbenzenesulfonamide], the fold induction at 15 µM runs as follows: under setting [1], 1.4; under setting [2], 1.2.

As for `CCCc1ccc(S(=O)(=O)c2ccc(F)cc2)cc1S(N)(=O)=O` [Example 566, 5-[(4-Fluorophenyl)sulfonyl]-2-propylbenzenesulfonamide], the fold induction at 15 µM under setting [1] is 1.5 and the fold induction at 15 µM under setting [2] was 1.3.

Turning to `Cc1ccc(S(=O)(=O)c2ccc(F)cc2)cc1S(=O)(=O)NC1CCNCC1` [Example 576, 5-[(4-fluorophenyl)sulfonyl]-2-methyl-N-piperidin-4-ylbenzenesulfonamide], the fold induction at 15 µM runs as follows: under setting [1], 3; under setting [2], 1.2.

Regarding `CC(C)c1ccc(S(=O)(=O)c2ccc(F)cc2)cc1S(=O)(=O)NCCO` [Example 582, 5-[(4-fluorophenyl)sulfonyl]-N-(2-hydroxyethyl)-2-isopropylbenzenesulfonamide], the fold induction at 15 µM runs as follows: under setting [1], 2.6; under setting [2], 1.

For `CN(C)c1ccc(S(=O)(=O)c2ccccc2)cc1S(=O)(=O)NCCc1ccccn1` [Example 601, 2-(dimethylamino)-5-(phenylsulfonyl)-N-(2-pyridin-2-ylethyl)benzenesulfonamide], the fold induction at 15 µM reads like this: under setting [1], 2; under setting [2], 0.9.

On to `Cc1ccc(S(=O)(=O)c2ccc(F)cc2)cc1S(=O)(=O)N(C(=O)C1CC1)C1CCN(C(=O)C2CC2)CC1` [Example 602, N-[1-(cyclopropylcarbonyl)piperidin-4-yl]-N-({5-[(4-fluorophenyl)sulfonyl]-2-methylphenyl}sulfonyl)cyclopropanecarboxamide], for which the fold induction at 15 µM stood at 1.3 under setting [1] and 1.1 under setting [2].

As for `O=S(=O)(NC1CCOCC1)c1cc(S(=O)(=O)c2ccc(F)cc2)ccc1Cl` [Example 622, 2-chloro-5-[(4-fluorophenyl)sulfonyl]-N-(tetrahydro-2H-pyran-4-yl)benzenesulfonamide], the fold induction at 15 µM was 2.7 under setting [1] and 1.1 under setting [2].

As for `CC(C)(C)OC(=O)N1CCC(NS(=O)(=O)c2cc(S(=O)(=O)c3ccccc3)ccc2Cl)CC1` [Example 623, tert-butyl 4-({[2-chloro-5-(phenylsulfonyl)phenyl]sulfonyl}amino)piperidine-1-carboxylate], the fold induction at 15 µM was 2.2 under setting [1] and 1.1 under setting [2].

Take `O=S(=O)(NC1CCNCC1)c1cc(S(=O)(=O)c2ccccc2)ccc1Cl` [Example 624, 2-chloro-5-(phenylsulfonyl)-N-piperidin-4-ylbenzenesulfonamide]: the fold induction at 15 µM is, setting by setting: under setting [1], 2.7; under setting [2], 1.2.

On to `O=S(=O)(c1ccccc1)c1ccc(Cl)c(S(=O)(=O)N2CCC(N3CCCC3)CC2)c1` [Example 635, 1-{[2-chloro-5-(phenylsulfonyl)phenyl]sulfonyl}-4-pyrrolidin-1-ylpiperidine], for which the fold induction at 15 µM by setting is: under setting [1], 2; under setting [2], 1.7.

With `O=S(=O)(c1ccccc1)c1ccc(Cl)c(S(=O)(=O)N2CCN(CCN3CCOCC3)CC2)c1` [Example 636, 4-[2-(4-{[2-chloro-5-(phenylsulfonyl)phenyl]sulfonyl}piperazin-1-yl)ethyl]morpholine], the fold induction at 15 µM by setting is: under setting [1], 1.7; under setting [2], 1.1.

`O=S(=O)(c1ccccc1)c1ccc(Cl)c(S(=O)(=O)N2CCN(Cc3ccc4c(c3)OCO4)CC2)c1` [Example 637, 1-(1,3-benzodioxol-5-ylmethyl)-4-{[2-chloro-5-(phenylsulfonyl)phenyl]sulfonyl}piperazine]: the fold induction at 15 µM was found to be 0.9 under setting [1] and 1 under setting [2].

On to `CC(C)(C)OC(=O)NC1CCN(S(=O)(=O)c2cc(S(=O)(=O)c3ccccc3)ccc2Cl)C1` (centres unmarked) [Example 638, tert-butyl(1-{[2-chloro-5-(phenylsulfonyl)phenyl]sulfonyl}pyrrolidin-3-yl)carbamate], for which the fold induction at 15 µM runs as follows: under setting [1], 1.2; under setting [2], 1.1.

On to `CC(C)(C)OC(=O)NC1CCN(S(=O)(=O)c2cc(S(=O)(=O)c3ccccc3)ccc2Cl)CC1` [Example 639, tert-butyl(1-{[2-chloro-5-(phenylsulfonyl)phenyl]sulfonyl}piperidin-4-yl)carbamate], for which the fold induction at 15 µM under setting [1] worked out at 0.9 and the fold induction at 15 µM under setting [2] was determined as 1.

`CN1CCN(CCCNS(=O)(=O)c2cc(S(=O)(=O)c3ccccc3)ccc2Cl)CC1` [Example 642, 2-chloro-N-[3-(4-methylpiperazin-1-yl)propyl]-5-(phenylsulfonyl)benzenesulfonamide]: the fold induction at 15 µM was 2.2 under setting [1] and 1.1 under setting [2].

As for `CCN(CC)C1CCN(S(=O)(=O)c2cc(S(=O)(=O)c3ccccc3)ccc2Cl)C1` (centres unmarked) [Example 644, 1-{[2-chloro-5-(phenylsulfonyl)phenyl]sulfonyl}-N,N-diethylpyrrolidin-3-amine], the fold induction at 15 µM by setting is: under setting [1], 1.3; under setting [2], 1.1.

Consider `CCOC(=O)C1CCCN(S(=O)(=O)c2cc(S(=O)(=O)c3ccccc3)ccc2Cl)C1` (centres unmarked) [Example 645, ethyl 1-{[2-chloro-5-(phenylsulfonyl)phenyl]sulfonyl}piperidine-3-carboxylate], for which the fold induction at 15 µM reads like this: under setting [1], 1; under setting [2], 1.1.

In the case of `CN(CCc1ccccn1)S(=O)(=O)c1cc(S(=O)(=O)c2ccccc2)ccc1Cl` [Example 646, 2-chloro-N-methyl-5-(phenylsulfonyl)-N-(2-pyridin-2-ylethyl)benzenesulfonamide], the fold induction at 15 µM under setting [1] came to 1 and the fold induction at 15 µM under setting [2] was determined as 1.1.

Turning to `Cc1ccc(C)n1CC1CCN(S(=O)(=O)c2cc(S(=O)(=O)c3ccccc3)ccc2Cl)CC1` [Example 653, 1-{[2-chloro-5-(phenylsulfonyl)phenyl]sulfonyl}-4-[(2,5-dimethyl-1H-pyrrol-1-yl)methyl]piperidine], the fold induction at 15 µM reads like this: under setting [1], 1; under setting [2], 1.

Consider `COC(=O)C(C)(C)NS(=O)(=O)c1cc(S(=O)(=O)c2ccccc2)ccc1Cl` [Example 654, methyl N-{[2-chloro-5-(phenylsulfonyl)phenyl]sulfonyl}-2-methylalaninate], for which the fold induction at 15 µM turned out to be 1 under setting [1] and 1 under setting [2].
